Test results as given in US6403637B1, “Methods of modulating matrix metalloproteinase activity and uses thereof” (priority 1999, dated 2002).

Legend:
UMR 106-01 cells [1] = test: Competition for 125I collagenase-3 binding in UMR 106-01 cells; set-up: species or system rat; conditions: for competition for 125I mouse collagenase-3 binding (in words): compared to full-length MMP-13; for percent of mouse collagenase-3 binding, UMR-106-01: competitor at 200-, 400- and 800-fold excess over 125I mouse collagenase-3, ± S.E.M., seven pooled experiments; for competition efficiency compared to full-length collagenase-3: 125I mouse collagenase-3
Protocol: (§1) For all binding experiments, cells were seeded into 2.0 cm^2 wells. After the cells reached approximately 95% confluence, the medium was replaced with fresh medium containing 1 mg/ml BSA and the cells were assayed for binding 4 h later. The cells were first washed with maintenance medium, then incubated in the same medium with 0.01% Tween 80 containing ^125I-rat collagenase-3 or other iodinated ligands at 4° C. for 2 h. Non-specific binding was assessed by adding a 50-100-fold excess of cold ligand to half the wells, while an equivalent volume of buffer was added to the remaining wells. After incubation, the wells were washed three times with ice-cold MEM (0.5 ml). The cells were then lysed with 500 μl of 1 M NaOH and the lysates were counted on a gamma counter. Protein labeling with ^125I was done using the chloramine T method (Greenwood et al., 1963, Biochem. J. 89:114). The proteins had specific activities ranging from 9 to 27 μCi/μg.
(§2) These proteins were used as competitors in a series of binding assays in UMR cells using ^125I mouse collagenase-3. Radioactive labeling and binding assays were performed as in Example 1.

[2] = tested on: MEF-2 (LRP null) mouse embryo fibroblasts; test: Competition for 125I collagenase-3 binding in MEF-2 (LRP null) cells; conditions: for percent of mouse collagenase-3 binding, MEF-2 (LRP null): competitor at 200-, 400- and 800-fold excess over 125I mouse collagenase-3, ± S.E.M., triplicate wells; for competition for receptor binding in MEF-2 cells (in words): compared to MEF-1 cells
Protocol: as §1
(§3) In order to exclude the possibility that the collagenase-3 receptor is the low density lipoprotein receptor-related protein, two cell lines of mouse embryo fibroblasts were used: wild-type (MEF-1) and low density lipoprotein receptor-related protein-null (MEF-2) (both provided by Dr. Joachim Herz). These cells were cultured in Dulbecco's MEM with 10% FBS, 10 units penicillin/ml, 10 μg streptomycin/ml.
as §2
(§4) This region thus appears to be the high-affinity binding domain recognized by the collagenase-3 receptor, and the other two domains (SEQ ID's NO:1 and 3) may be recognized by the lower-affinity low density lipoprotein receptor-related protein or may alternatively stabilize the interaction with the collagenase-3 receptor. To investigate the contribution of each receptor, two mouse embryo fibroblast (MEF) cell lines were utilized. The MEF-1 cell line is known to express both the collagenase-3 receptor and the low density lipoprotein receptor-related protein, while the MEF-2 cell line has been rendered low density lipoprotein receptor-related protein-null. […] This hypothesis is confirmed by the data on Table 4.

[3] = tested on: MEF-1 mouse embryo fibroblasts; test: Competition for 125I collagenase-3 binding in MEF-1 cells; conditions: competitor at 200-, 400- and 800-fold excess over 125I mouse collagenase-3; ± S.E.M., triplicate wells
Protocol: as §1, §3, §2, §4

[4] = tested on: UMR 106-01 rat osteosarcoma cells; test: Binding of 125I-labeled proteinases to UMR 106-01 cells; conditions: for binding to UMR cells (in words): 125I-labeled protein, direct binding; for Specific binding: 125I-labeled ligand 8 nM, means ± SEM for triplicate wells
UMR 106-01 cells [5] = test: Internalization assay in UMR 106-01 cells; format: cell-based, rat
Protocol: Although the low density lipoprotein receptor-related protein is not required for rat collagenase-3 binding to the cell, it might be required for ligand internalization. Therefore, internalization assays were performed with ^125I-rat collagenase-3 using MEF-1 and MEF-2 cells as follows. After binding 125I-rat labeled proteins as above, the cells were washed three times with cold modified Eagle's media (0.5 ml) to remove unbound ligand. The cells were then warmed to 37° C. by the addition of prewarmed modified Eagle's media (0.25 ml), and incubated at 37° C. for selected intervals. At each time point, the media were collected, and the cells were washed once with ice-cold MEM, then incubated with 0.25% Pronase®-E in modified Eagle's media for 15 min at 4° C. to strip cell surface proteins. The cell suspension was then centrifuged, and the radioactivity associated with cell pellets (defining internalized ^125I-proteins) was measured at each time point.
It is known that RAP inhibits internalization of ligands by the low density lipoprotein receptor-related protein (Kounnas et al., 1996, J. Biol. Chem 271:6523). Therefore, internalization assays were performed using ^125I-labeled rat collagenase-3 as a ligand and receptor-associated protein as a competitor. Human receptor-associated protein from the pGEX-receptor-associated protein expression vector (provided by Dr. Joachim Herz, University of Texas Southwestern Medical Center, Dallas, Tex.) was expressed in bacteria and prepared as described in Herz et al., 1991, J. Biol. Chem. 266:21232.
To investigate the mechanism by which RAP regulates internalization of collagenase-3, an experiment was performed where excess unlabeled RAP or rat collagenase-3 was prebound to UMR 106-01 cells. Binding and internalization of ^125I-labeled rat collagenase-3 and RAP were then allowed to proceed.

HM (166-228)/H: chimeric collagenase: mouse MMP-13 residues 166-228 in human MMP-1
competition for 125I mouse collagenase-3 binding (in words) (UMR 106-01 cells [1]): impaired ability to compete for receptor binding | percent of mouse collagenase-3 binding, UMR-106-01 (UMR 106-01 cells [1]): 67.8 ± 3.4% | percent of mouse collagenase-3 binding, MEF-2 (LRP null) [2]: 97.2 ± 1.7% | percent of mouse collagenase-3 binding, MEF 1 [3]: 80.8 ± 6.0%

HM (141-228)/H: chimeric collagenase: mouse MMP-13 residues 141-228 in human MMP-1
competition efficiency compared to full-length collagenase-3 (UMR 106-01 cells [1]): 90% | percent of mouse collagenase-3 binding, UMR-106-01 (UMR 106-01 cells [1]): 89.9 ± 5.3% | percent of mouse collagenase-3 binding, MEF-2 (LRP null) [2]: 75.1 ± 13.7% | binding to UMR cells (in words) [4]: capable of binding specifically to UMR cells | percent of mouse collagenase-3 binding, MEF 1 [3]: 94.3 ± 4.7% | endocytosis of iodinated construct compared to full-length collagenase-3 (in words) (UMR 106-01 cells [5]): significantly reduced endocytosis

Human MMP-3: human stromelysin-1 (MMP-3)
Specific binding [4]: 0.0 ± 0.0 fmol/2.6 × 10^5 cells

MMP-13 (1-265): C-terminally truncated mouse collagenase-3
competition for 125I mouse collagenase-3 binding (in words) (UMR 106-01 cells [1]): essentially equivalent manner compared to full-length MMP-13 | percent of mouse collagenase-3 binding, UMR-106-01 (UMR 106-01 cells [1]): 100% | percent of mouse collagenase-3 binding, MEF 1 [3]: 100%

M (1-228)/H: chimeric collagenase: mouse MMP-13 residues 1-228, remainder human MMP-1
competition efficiency compared to full-length collagenase-3 (UMR 106-01 cells [1]): greater than 90% | percent of mouse collagenase-3 binding, UMR-106-01 (UMR 106-01 cells [1]): 85.3 ± 3.0% | competition for receptor binding in MEF-2 cells (in words) [2]: impaired binding in MEF-2 cells | percent of mouse collagenase-3 binding, MEF-2 (LRP null) [2]: 41.9 ± 9.7% | binding to UMR cells (in words) [4]: capable of binding specifically to UMR cells | percent of mouse collagenase-3 binding, MEF 1 [3]: 85.9 ± 10.5% | endocytosis of iodinated construct compared to full-length collagenase-3 (in words) (UMR 106-01 cells [5]): significantly reduced endocytosis

Human MMP-1: human fibroblast collagenase-1 (interstitial collagenase)
percent of mouse collagenase-3 binding, UMR-106-01 (UMR 106-01 cells [1]): 0% | Specific binding [4]: 0.1 ± 1.4 fmol/2.6 × 10^5 cells

HM/M (141-472): chimeric collagenase: human MMP-1 N-terminus, mouse MMP-13 residues 141-472
percent of mouse collagenase-3 binding, UMR-106-01 (UMR 106-01 cells [1]): 95.7 ± 3.9% | competition for receptor binding in MEF-2 cells (in words) [2]: significantly impaired ability to compete for receptor binding | percent of mouse collagenase-3 binding, MEF 1 [3]: 84.4 ± 6.1%

H/M (229-472): chimeric collagenase: human MMP-1 N-terminus, mouse MMP-13 residues 229-472
competition efficiency compared to full-length collagenase-3 (UMR 106-01 cells [1]): < 17% | percent of mouse collagenase-3 binding, UMR-106-01 (UMR 106-01 cells [1]): 16.5 ± 5.8% | percent of mouse collagenase-3 binding, MEF 1 [3]: 2.2 ± 1.1%
